# Literature values, collected in patent publication US20230225968A1, “PROCESS FOR PRODUCING VISIBLY CLEAR AQUEOUS CONSUMABLE PRODUCTS” (CHAVAN, Neha, priority 2020, published 2023).
# Details: oil-based delivery systems; humans
structure (smiles),measurement,value
"C=C(C)[C@@H]1CCC(C)=C[C@H]1c1c(O)cc(CCCCC)cc1O [CBD, cannabidiol]",total CBD absorbed,4%
